Measurements published in patent US5663297A, “Antithrombic peptides” (Hoffmann-La Roche Inc., priority 1989, dated 1997).
*1 amine or outer side, *2 acyl side, *3 side chain or, on linkers, in order; H or OH if unused. Where a SMILES comes first, the peptide text is derived from it. [ ]: non-standard residue; d: D form. The star is where a group is joined. X1 = O=C(NCCN(CC(=O)[*:2])[*:1])OCc1ccccc1; 1Nal = N[C@@H](Cc1cccc2ccccc12)C(=O)O; Gly(N-2-aminoethyl) = NCCNCC(=O)O; Cbz = O=C(OCc1ccccc1)*

Biological target: T1, fibrinogen receptor, glycoprotein IIb/IIIa (Homo sapiens, UniProt P05106+P08514)
T1 construct: from tissue
Assay: Inhibition of fibrinogen binding to immobilized glycoprotein IIb/IIIa (ELISA)
Conditions: concentration required to inhibit binding of fibrinogen to the immobilized receptor from human blood platelets by 50%
Procedure: The glycoprotein IIb/IIIa is obtained-from Triton X-100 extracts of human blood platelets and purified by lectin affinity chromatography (Analytical Biochemistry 151, 1985, 169-177) and chromatography on an Arg-Gly-Asp-Ser affinity column (Science 231, 1986, 1559-62). The thus-obtained receptor protein is bonded to microtitre plates. The specific binding of fibrinogen to the immobilized receptor is determined with the aid of an ELISA system ("enzyme-linked immunosorbent assay"). The IC50 values hereinafter correspond to that concentration of the test substance which is required to inhibit the binding of fibrinogen to the immobilized receptor by 50%: […]

T1 sequence (P08514 32-887 limits assumed): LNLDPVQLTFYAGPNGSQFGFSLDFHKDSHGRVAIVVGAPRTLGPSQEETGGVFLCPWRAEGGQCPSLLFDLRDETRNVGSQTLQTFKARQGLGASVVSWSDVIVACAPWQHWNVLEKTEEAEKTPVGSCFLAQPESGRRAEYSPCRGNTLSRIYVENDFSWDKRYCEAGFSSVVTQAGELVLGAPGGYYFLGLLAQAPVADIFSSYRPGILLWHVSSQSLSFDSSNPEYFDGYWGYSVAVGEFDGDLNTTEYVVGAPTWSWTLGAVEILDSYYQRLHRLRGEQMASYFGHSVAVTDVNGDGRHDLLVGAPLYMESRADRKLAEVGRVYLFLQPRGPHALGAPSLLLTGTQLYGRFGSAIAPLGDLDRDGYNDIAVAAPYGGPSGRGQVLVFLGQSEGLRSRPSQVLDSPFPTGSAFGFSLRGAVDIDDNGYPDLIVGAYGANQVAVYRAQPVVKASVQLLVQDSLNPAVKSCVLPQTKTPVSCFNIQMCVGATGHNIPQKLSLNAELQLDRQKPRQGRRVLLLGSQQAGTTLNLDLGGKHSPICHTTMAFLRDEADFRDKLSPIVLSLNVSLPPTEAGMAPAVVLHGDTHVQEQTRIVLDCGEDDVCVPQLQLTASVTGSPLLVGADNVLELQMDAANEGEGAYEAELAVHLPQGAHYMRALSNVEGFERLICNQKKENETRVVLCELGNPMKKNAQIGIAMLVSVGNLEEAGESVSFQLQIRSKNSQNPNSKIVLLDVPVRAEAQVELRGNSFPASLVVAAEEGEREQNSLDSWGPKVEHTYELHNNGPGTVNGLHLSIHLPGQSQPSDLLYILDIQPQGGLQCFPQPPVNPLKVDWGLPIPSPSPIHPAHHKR
T1 sequence (P08514 891-1039 partner limits assumed): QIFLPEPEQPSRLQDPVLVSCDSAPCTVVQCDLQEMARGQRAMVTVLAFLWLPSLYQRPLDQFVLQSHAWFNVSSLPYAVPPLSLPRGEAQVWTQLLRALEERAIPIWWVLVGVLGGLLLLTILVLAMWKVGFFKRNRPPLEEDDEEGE
T1 sequence (P05106 27-788): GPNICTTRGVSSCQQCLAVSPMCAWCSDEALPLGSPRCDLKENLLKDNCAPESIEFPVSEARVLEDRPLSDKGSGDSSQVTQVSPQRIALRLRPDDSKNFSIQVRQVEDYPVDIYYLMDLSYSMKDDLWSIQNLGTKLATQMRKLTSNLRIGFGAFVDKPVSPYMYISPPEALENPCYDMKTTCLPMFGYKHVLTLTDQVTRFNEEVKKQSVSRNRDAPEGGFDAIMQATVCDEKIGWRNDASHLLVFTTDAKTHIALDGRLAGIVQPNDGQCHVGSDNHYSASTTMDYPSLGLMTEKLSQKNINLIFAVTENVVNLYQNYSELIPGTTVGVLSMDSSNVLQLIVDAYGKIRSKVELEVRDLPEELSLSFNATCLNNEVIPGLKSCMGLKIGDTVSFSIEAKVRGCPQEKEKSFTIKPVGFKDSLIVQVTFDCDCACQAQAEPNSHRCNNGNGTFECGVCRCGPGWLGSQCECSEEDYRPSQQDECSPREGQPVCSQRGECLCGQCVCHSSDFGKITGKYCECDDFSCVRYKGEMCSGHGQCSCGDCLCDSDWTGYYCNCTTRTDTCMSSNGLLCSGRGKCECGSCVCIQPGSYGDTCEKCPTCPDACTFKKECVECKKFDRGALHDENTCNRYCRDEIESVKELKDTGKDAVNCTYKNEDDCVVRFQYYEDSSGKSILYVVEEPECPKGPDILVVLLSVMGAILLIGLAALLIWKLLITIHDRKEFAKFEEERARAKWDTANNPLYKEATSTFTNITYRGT

Row | SMILES | IC50
1 | CC(C)[C@H](NC(=O)[C@H](CC(=O)O)NC(=O)CNC(=O)C(N)Cc1ccc(C(=N)N)cc1)C(=O)O (mixture of isomers) [Example 2, [3-(p-amidinophenyl)-DL-alanyl]-Gly-Asp-Val-OH] | 16 nM
2 | CC(C)[C@H](NC(=O)[C@H](CC(=O)O)NC(=O)CNC(=O)C(Cc1ccc(NC(=N)N)cc1)NC(=O)OC(C)(C)C)C(=O)O (mixture of isomers) [Example 15, [N-Boc-3-(p-guanidinophenyl)-DL-alanyl]-Gly-Asp-Val-OH] | 80 nM
3 | N=C(N)c1ccc(CC(N)C(=O)NCC(=O)N[C@@H](CC(=O)O)C(=O)N[C@@H](Cc2cccc3ccccc23)C(=O)O)cc1 (mixture of isomers) [Example 16, [3-(p-amidinophenyl)-DL-alanyl]-Gly-Asp-Nal(1)-OH] | 22 nM
4 | CC(C)[C@H](NC(=O)[C@H](CC(=O)O)NC(=O)CNC(=O)C(Cc1ccc(C(=N)N)cc1)NC(=O)OC(C)(C)C)C(=O)O (mixture of isomers) [Example 17, [N-Boc-3-(p-amidinophenyl)-DL-alanyl]-Gly-Asp-Val-OH] | 16 nM
5 | CC(C)[C@H](NC(=O)[C@H](CC(=O)O)NC(=O)CNC(=O)[C@H](CCCNC(=N)N)NC(=O)CN(CCNC(=O)OCc1ccccc1)C(=O)OCc1ccccc1)C(=O)O [Example 6, Z-Aeg(Z)-Arg-Gly-Asp-Val-OH] (Cbz-[X1]RGDV-OH) | 150 nM
6 | CC(C)[C@H](NC(=O)[C@H](CC(=O)O)NC(=O)CNC(=O)[C@H](CCCNC(=N)N)NC(=O)CNCCN)C(=O)O [Example 7, Aeg-Arg-Gly-Asp-Val-OH] (H-[Gly(N-2-aminoethyl)]RGDV-OH) | 90 nM
7 | N=C(N)NCCC[C@H](NC(=O)CNCCN)C(=O)NCC(=O)N[C@@H](CC(=O)O)C(=O)N[C@@H](CO)C(=O)O [Example 8, Aeg-Arg-Gly-Asp-Ser-OH] | 110 nM
8 | N=C(N)NCCC[C@H](NC(=O)CNCCN)C(=O)NCC(=O)N[C@@H](CC(=O)O)C(=O)N[C@@H](Cc1cccc2ccccc12)C(=O)O [Example 10, N-Aeg-Arg-Gly-Asp-Nal(1)-OH] (H-[Gly(N-2-aminoethyl)]RGD[1Nal]-OH) | 38 nM
9 | CC[C@H](C)[C@H](NC(=O)[C@H](CC(=O)O)NC(=O)CNC(=O)[C@H](CCCNC(=N)N)NC(=O)CNCCN)C(=O)O [Example 11, Aeg Arg- Gly-Asp-Ile-OH] (H-[Gly(N-2-aminoethyl)]RGDI-OH) | 120 nM
10 | CC(=N)NCCCC[C@H](NC(=O)OC(C)(C)C)C(=O)NCC(=O)N[C@@H](CC(=O)O)C(=O)N[C@H](C(=O)O)C(C)C [Example 12, [N2-Boc-N6 -(1-iminoethyl)-L-lysyl]Gly-Asp-Val- -OH] | 110 nM
11 | [N-]=[N+]=Nc1ccccc1C(=O)N[C@@H](CCCNC(=N)N)C(=O)NCC(=O)N[C@@H](CC(=O)O)C(=O)Nc1ccccc1C(=O)O [Example 13, N-[(o-azidobenzoyl)-Arg-Gly-Asp]-anthranilic acid] | 110 nM
12 | CC(C)[C@H](NC(=O)[C@H](CC(=O)O)NC(=O)CNC(=O)[C@H](CCCNC1=NC2(O)CCCCC2(O)N1)NC(=O)OC(C)(C)C)C(=O)O (stereo partly drawn) [Example 14, [N2-Boc-N5-(3a,4,5,6,7,7a-hexahydro-3a,7a-dihydroxy-1H-benzimidazol-2-yl)- L-ornithyl]-Gly-Asp-Val-OH] | 54 nM

Continued, values first:

Row | IC50 | SMILES
13 | 11 nM | N=C(N)c1ccc(CCC(=O)NCC(=O)N[C@@H](CC(=O)O)C(=O)N[C@@H](Cc2cccc3ccccc23)C(=O)O)cc1 [Example 19, (p-amidinohydrocinnamoyl)-Gly Asp-Nal(1)-OH]
14 | 22 nM | CC(C)[C@H](NC(=O)[C@H](CC(=O)O)NC(=O)CNC(=O)[C@H](N)Cc1ccc(C(=N)N)cc1)C(=O)O [Example 20, [3-(p-amidinophenyl)-D-alanyl]-Gly-Asp-Val-OH]
15 | 210 nM | CC(C)[C@H](NC(=O)[C@H](CC(=O)O)NC(=O)CNC(=O)CCc1ccc(CN)cc1)C(=O)O [Example 23, (p-aminomethylhydrocinnamoyl)-Gly-Asp-Val-OH]
16 | 35 nM | CC(C)[C@H](NC(=O)[C@H](CC(=O)O)NC(=O)CNC(=O)CCc1ccc(C(=N)N)cc1)C(=O)O [Example 24, (p-amidinohydrocinnamoyl)-Gly-Asp-Val-OH]
17 | 23 nM | CC(C)[C@H](NC(=O)[C@H](CC(=O)O)NC(=O)CNC(=O)[C@@H](N)Cc1ccc(C(=N)N)cc1)C(=O)O [Example 25, [3-(p-amidinophenyl)-L-alanyl]-Gly-Asp-Val-OH]
18 | 5 nM | CC(C)[C@H](NC(=O)[C@H](CC(=O)O)NC(=O)CNC(=O)COc1ccc(C(=N)N)cc1)C(=O)O [Example 26, (p-amidinophenoxy)acetyl-Gly-Asp Val-OH]
19 | 1.9 nM | CC(C)[C@H](NC(=O)[C@H](CC(=O)O)NC(=O)CNC(=O)Cc1ccc(C(=N)N)cc1)C(=O)O [Example 27, (p-amidinophenyl)acetyl-Gly-Asp-Val-OH]

Tested on: mouse
Assay: Acute toxicity, intravenous, mouse
Format: in vivo
Conditions: intravenously in the mouse
Procedure: The compounds of formula I have a low toxicity. Thus the product of Example 2 has a LD50 of 600 mg/kg intravenously in the mouse.

Row | SMILES | LD50
20 | CC(C)[C@H](NC(=O)[C@H](CC(=O)O)NC(=O)CNC(=O)C(N)Cc1ccc(C(=N)N)cc1)C(=O)O (mixture of isomers) [Example 2, [3-(p-amidinophenyl)-DL-alanyl]-Gly-Asp-Val-OH] | 600 mg/kg
